Results on 28 targets are retold here after the supplement of paper PMC12463676, “Small-molecule dissolution of stress granules by redox modulation benefits ALS models” (Nature Chemical Biology, 2025).

Compound in one test: NC(=O)CCCCC1CCSS1 [lipoamide]
Briefly: thermal stability z-score vs DMSO; higher = more thermally stabilized by treatment. The conditions noted are these: HeLa, lipoamide concentration 100 µM. The procedure: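 Cellular thermal proteome profiling in HeLa cells. Cells were treated with 100 µM lipoamide for 1 h, with or without 1 mM arsenate for a further 1 h, then heated to ten temperatures (37-66.3 °C), and soluble protein was quantified by TMT mass spectrometry relative to 0.1% DMSO controls. The thermal stability score (sum of log2 fold changes minus the abundance score) was transformed to a z-score; mean of n = 3 experiments.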

Compound in a further test: O=[As]([O-])(O)O.[K+] [potassium arsenate]
Described as above. The conditions noted are these: HeLa; arsenate concentration 1 mM. The procedure: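 Cellular thermal proteome profiling in HeLa cells treated with 1 mM arsenate for 1 h (DMSO pretreatment), heated to ten temperatures (37-66.3 °C). Soluble protein was quantified by TMT mass spectrometry relative to DMSO controls; the thermal stability score was transformed to a z-score; mean of n = 3 experiments.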

[1] abbreviates: arsenate co-treatment: 1 mM arsenate 1 h.
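Note: each temperature applied for 3 min, abundance score taken as mean log2 fold change at the two lowest temperatures, z-score obtained by mean subtraction and division by SD.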

Sequence of UniProt Q9NW13 (Q9NW13 whole entry): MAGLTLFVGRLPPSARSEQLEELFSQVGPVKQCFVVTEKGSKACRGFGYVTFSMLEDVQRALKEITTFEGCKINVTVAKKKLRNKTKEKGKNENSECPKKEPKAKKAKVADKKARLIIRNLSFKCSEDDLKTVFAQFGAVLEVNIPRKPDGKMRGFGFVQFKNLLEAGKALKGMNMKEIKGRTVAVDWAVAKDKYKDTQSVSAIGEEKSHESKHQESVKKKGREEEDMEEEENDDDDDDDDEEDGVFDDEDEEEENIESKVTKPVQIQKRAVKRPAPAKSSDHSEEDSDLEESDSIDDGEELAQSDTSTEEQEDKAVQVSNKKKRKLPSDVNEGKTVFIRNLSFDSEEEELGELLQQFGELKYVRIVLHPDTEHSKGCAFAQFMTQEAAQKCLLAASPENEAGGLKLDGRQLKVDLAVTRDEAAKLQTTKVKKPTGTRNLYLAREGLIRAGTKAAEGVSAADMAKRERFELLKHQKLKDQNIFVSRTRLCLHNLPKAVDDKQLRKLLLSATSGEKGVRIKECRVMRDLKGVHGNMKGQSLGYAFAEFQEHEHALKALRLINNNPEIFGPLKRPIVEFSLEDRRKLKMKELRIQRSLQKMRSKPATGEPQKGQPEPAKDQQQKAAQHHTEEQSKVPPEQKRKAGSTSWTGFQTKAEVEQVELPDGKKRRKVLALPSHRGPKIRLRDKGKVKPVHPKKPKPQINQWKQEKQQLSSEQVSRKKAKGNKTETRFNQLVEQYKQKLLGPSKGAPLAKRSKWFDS
Sequence of UniProt P62877 (P62877 whole entry, looked up): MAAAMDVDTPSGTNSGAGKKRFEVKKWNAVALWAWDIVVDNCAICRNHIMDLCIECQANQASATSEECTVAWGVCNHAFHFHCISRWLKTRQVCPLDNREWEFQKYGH
Sequence of UniProt Q96PM5 (Q96PM5 whole entry): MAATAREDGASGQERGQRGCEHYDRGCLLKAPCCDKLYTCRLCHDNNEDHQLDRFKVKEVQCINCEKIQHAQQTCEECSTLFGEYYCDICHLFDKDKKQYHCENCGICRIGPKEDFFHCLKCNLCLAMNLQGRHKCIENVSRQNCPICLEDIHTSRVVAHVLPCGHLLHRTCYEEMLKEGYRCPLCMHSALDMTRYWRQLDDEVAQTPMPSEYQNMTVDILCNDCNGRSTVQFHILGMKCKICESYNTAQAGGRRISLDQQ
Sequence of UniProt Q9NW64 (Q9NW64 whole entry): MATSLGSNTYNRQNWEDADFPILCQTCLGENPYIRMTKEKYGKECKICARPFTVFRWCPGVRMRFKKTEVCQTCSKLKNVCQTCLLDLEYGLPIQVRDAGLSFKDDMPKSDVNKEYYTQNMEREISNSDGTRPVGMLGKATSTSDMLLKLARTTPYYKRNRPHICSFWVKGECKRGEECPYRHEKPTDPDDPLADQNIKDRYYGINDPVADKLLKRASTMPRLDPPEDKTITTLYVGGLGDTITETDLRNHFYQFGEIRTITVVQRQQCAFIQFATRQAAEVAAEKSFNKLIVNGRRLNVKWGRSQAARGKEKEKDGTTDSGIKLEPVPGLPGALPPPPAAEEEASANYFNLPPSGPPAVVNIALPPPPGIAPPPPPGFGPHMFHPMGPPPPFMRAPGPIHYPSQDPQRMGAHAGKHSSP
Sequence of UniProt Q15434 (Q15434 whole entry): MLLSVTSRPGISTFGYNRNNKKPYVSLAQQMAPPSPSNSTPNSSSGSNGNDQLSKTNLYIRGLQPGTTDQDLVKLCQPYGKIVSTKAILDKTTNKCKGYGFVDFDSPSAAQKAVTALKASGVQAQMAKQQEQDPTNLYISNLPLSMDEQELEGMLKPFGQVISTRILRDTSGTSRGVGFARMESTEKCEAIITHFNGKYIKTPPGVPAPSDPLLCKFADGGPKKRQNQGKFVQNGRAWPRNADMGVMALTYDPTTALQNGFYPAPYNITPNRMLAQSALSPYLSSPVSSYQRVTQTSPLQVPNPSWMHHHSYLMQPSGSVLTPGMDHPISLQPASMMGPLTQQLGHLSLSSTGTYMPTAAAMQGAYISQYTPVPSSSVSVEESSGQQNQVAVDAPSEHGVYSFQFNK
Sequence of UniProt Q9P258 (Q9P258 whole entry): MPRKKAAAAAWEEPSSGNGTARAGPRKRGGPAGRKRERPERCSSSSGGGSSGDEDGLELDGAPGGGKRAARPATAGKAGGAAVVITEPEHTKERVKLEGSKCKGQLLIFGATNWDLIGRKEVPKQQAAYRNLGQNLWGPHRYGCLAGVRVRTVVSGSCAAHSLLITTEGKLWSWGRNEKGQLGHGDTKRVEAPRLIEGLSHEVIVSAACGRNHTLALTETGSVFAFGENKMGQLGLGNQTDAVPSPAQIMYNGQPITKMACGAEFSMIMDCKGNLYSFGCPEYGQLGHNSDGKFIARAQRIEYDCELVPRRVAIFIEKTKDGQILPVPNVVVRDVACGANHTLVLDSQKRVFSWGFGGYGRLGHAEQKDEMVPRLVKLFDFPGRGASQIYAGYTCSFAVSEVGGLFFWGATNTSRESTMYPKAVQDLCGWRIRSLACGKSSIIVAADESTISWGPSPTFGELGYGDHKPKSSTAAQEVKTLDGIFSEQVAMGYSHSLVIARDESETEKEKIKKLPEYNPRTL
Sequence of UniProt Q5TC82 (Q5TC82 whole entry): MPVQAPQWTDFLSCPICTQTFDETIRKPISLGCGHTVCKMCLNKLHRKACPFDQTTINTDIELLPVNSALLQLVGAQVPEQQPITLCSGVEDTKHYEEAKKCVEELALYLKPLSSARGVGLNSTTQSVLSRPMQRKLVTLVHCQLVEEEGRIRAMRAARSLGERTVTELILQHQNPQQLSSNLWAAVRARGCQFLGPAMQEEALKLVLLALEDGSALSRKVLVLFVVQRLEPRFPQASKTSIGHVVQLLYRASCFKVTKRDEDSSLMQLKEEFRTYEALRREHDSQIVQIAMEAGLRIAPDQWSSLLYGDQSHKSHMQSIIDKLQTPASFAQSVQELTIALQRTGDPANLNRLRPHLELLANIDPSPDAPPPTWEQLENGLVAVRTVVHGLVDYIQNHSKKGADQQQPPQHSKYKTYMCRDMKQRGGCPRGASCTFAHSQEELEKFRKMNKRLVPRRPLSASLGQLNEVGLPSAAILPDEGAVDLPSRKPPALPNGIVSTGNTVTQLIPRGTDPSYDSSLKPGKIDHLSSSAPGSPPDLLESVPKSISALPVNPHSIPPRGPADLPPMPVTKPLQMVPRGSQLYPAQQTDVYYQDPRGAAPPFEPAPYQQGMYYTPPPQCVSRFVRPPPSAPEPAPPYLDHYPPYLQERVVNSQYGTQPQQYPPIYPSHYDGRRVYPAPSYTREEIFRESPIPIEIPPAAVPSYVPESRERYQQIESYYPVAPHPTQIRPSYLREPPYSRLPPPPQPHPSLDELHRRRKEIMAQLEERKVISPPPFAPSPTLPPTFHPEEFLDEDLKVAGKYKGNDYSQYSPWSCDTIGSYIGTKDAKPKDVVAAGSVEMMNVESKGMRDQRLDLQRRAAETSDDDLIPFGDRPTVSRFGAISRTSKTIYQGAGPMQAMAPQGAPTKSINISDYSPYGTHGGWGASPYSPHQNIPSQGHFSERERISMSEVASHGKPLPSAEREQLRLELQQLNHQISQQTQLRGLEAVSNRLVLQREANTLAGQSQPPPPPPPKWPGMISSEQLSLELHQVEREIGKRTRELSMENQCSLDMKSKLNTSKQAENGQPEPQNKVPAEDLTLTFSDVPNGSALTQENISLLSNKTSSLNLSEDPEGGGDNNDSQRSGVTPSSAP
Sequence of UniProt Q9P2N5 (Q9P2N5 whole entry): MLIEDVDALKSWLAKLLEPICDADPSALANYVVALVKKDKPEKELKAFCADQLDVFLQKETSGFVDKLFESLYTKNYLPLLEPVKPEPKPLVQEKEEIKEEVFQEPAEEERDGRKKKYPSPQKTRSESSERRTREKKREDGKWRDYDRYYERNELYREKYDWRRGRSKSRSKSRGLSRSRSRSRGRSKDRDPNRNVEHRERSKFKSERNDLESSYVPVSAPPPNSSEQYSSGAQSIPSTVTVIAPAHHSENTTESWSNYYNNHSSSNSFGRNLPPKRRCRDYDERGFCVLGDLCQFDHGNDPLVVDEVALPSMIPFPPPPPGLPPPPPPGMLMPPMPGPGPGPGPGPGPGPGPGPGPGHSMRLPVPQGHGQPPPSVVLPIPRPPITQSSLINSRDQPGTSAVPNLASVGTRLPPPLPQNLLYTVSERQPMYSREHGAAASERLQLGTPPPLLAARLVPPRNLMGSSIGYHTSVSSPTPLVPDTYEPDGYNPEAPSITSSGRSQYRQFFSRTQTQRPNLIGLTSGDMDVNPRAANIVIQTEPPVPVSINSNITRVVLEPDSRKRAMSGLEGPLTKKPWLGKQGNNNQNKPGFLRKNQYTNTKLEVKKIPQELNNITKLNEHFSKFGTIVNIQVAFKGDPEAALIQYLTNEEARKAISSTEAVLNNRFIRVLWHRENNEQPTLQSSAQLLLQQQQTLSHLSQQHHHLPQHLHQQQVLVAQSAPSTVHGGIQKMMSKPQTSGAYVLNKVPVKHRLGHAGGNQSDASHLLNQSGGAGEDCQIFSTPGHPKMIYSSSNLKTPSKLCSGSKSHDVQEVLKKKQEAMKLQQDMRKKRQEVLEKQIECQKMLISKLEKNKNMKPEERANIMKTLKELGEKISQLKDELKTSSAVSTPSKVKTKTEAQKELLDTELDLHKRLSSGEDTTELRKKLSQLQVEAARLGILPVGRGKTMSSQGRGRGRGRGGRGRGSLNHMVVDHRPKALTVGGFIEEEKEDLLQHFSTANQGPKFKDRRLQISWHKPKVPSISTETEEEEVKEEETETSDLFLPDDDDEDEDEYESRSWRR
Sequence of UniProt Q15293 (Q15293 whole entry): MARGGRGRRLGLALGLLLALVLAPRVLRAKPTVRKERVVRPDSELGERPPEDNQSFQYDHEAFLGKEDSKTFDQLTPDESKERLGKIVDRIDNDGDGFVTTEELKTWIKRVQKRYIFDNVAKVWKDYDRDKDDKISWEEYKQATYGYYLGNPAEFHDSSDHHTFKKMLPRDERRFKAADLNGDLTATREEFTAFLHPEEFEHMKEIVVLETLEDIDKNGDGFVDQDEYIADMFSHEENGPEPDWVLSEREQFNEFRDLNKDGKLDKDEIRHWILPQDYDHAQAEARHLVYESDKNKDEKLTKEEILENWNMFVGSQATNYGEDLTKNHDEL

For the target RBM19 (UniProt Q9Y4C8), the values for the thermal stability z-score with lipoamide (setting [1]), in the test with lipoamide (arsenate co-treatment: none) and in the test with potassium arsenate were 0.0627, 0.309 and 0.649, respectively.
In the same order, the values of RBM22 (UniProt Q9NW64) are -0.0944, 0.0307 and -1.96.
With RBM25 (UniProt P49756), the thermal stability z-score with lipoamide (setting [1]) was -0.0516; with lipoamide (arsenate co-treatment: none) it was 0.34; in the test with potassium arsenate, -0.454.
With RBM26 (UniProt Q5T8P6), the results for the thermal stability z-score with lipoamide (setting [1]), with lipoamide (arsenate co-treatment: none) and with potassium arsenate were -0.0221, 0.172 and -0.536, respectively.
As to RBM27 (UniProt Q9P2N5), the thermal stability z-score in the test with lipoamide (setting [1]) is -0.453; with lipoamide (arsenate co-treatment: none), -0.373; with potassium arsenate, -0.145.
Take RBM28 (UniProt Q9NW13): the thermal stability z-score was -0.0361 with lipoamide (setting [1]), -0.0267 with lipoamide (arsenate co-treatment: none) and -0.81 in the test with potassium arsenate.
In the same order, the values of RBM33 (UniProt Q96EV2) are 0.0301, -0.534 and -0.175.
With RBM34 (UniProt P42696), the thermal stability z-score with lipoamide (setting [1]) was 0.0729; with lipoamide (arsenate co-treatment: none), -0.0422; with potassium arsenate, -0.201.
For the target RBM39 (UniProt Q14498), the thermal stability z-score with lipoamide (setting [1]) is -0.398; in the test with lipoamide (arsenate co-treatment: none) it was 0.0967; with potassium arsenate, -0.546.
On to RBM42 (UniProt Q9BTD8), for which the values for the thermal stability z-score in the test with lipoamide (setting [1]), with lipoamide (arsenate co-treatment: none) and with potassium arsenate were 0.952, 0.152 and -0.098, respectively.
As to RBM47, the thermal stability z-score is 0.133 with lipoamide (setting [1]), -0.661 in the test with lipoamide (arsenate co-treatment: none) and -0.629 in the test with potassium arsenate.
In the case of RBMS1 (UniProt P29558), the thermal stability z-score with lipoamide (setting [1]) is -0.643; with lipoamide (arsenate co-treatment: none), 0.176; with potassium arsenate, -0.265.
In the case of RBMS2 (UniProt Q15434), the thermal stability z-score with lipoamide (setting [1]) was 0.0996; in the test with lipoamide (arsenate co-treatment: none) it was 0.158; with potassium arsenate, -0.0696.
As for RBMX (UniProt P38159), the values for the thermal stability z-score in the test with lipoamide (setting [1]), with lipoamide (arsenate co-treatment: none) and with potassium arsenate were 1.51, 0.311 and -0.366, respectively.
In the same order, the values of RBPJ (UniProt Q06330) are 0.252, -0.0841 and -0.676.
In the same order, the values of RBSN (UniProt Q9H1K0) are 0.0643, 0.16 and -0.113.
Turning to RBX1 (UniProt P62877), the thermal stability z-score with lipoamide (setting [1]) is -0.311; with lipoamide (arsenate co-treatment: none) it was 0.0681; in the test with potassium arsenate it was 0.163.
For the target RC3H1 (UniProt Q5TC82), the thermal stability z-score is -0.195 in the test with lipoamide (setting [1]), -0.0428 with lipoamide (arsenate co-treatment: none) and -0.351 with potassium arsenate.
As to RCC1 (UniProt P18754), the thermal stability z-score with lipoamide (setting [1]) was -0.231; with lipoamide (arsenate co-treatment: none) it was -0.0308; with potassium arsenate it was -0.548.
The matching figures for RCC2 (UniProt Q9P258): -0.997, -0.671 and -0.0515.
In the case of RCCD1 (UniProt A6NED2), the thermal stability z-score with lipoamide (setting [1]) is 0.452; in the test with lipoamide (arsenate co-treatment: none), 0.179; in the test with potassium arsenate, -0.297.
As for RCHY1 (UniProt Q96PM5), the thermal stability z-score in the test with lipoamide (setting [1]) was -0.131; in the test with lipoamide (arsenate co-treatment: none), -0.0834; in the test with potassium arsenate, -0.571.
For the target RCL1 (UniProt Q9Y2P8), the figures for the thermal stability z-score with lipoamide (setting [1]), in the test with lipoamide (arsenate co-treatment: none) and with potassium arsenate were 1.4, 0.192 and 2.29, respectively.
RCN1 (UniProt Q15293): the values for the thermal stability z-score with lipoamide (setting [1]), with lipoamide (arsenate co-treatment: none) and with potassium arsenate were -1.02, -0.814 and 0.52, respectively.
In the same order, the values of RCN2 (UniProt Q14257) are -3.71, -2.81 and 0.788.
In the same order, the values of RCN3 (UniProt Q96D15) are -0.715, -0.986 and -0.0957.
The matching figures for RCOR1 (UniProt Q9UKL0): 1.01, 0.999 and -0.739.
As to RCOR3 (UniProt Q9P2K3), the figures for the thermal stability z-score in the test with lipoamide (setting [1]), with lipoamide (arsenate co-treatment: none) and with potassium arsenate were 0.0711, 0.0826 and 0.119, respectively.
